# Laboratory results as given in patent US7452965B2, “Colon tumor specific binding peptides” (University of Utah Research Foundation, priority 2002, dated 2008).
# Entries after “also recorded” stand apart in the source; their conditions may differ. Ends that are not written are not given here.
# Legend:
# HT29 cells = test: RPM-FITC immunofluorescence staining of cultured cells (confocal microscopy); assay type: cell-based; settings: for localisation of peptide in HT29 cells: 100 uM, 1 hour
# Description: (§1) Cell Culture: HT29, HCT116, or a 50% mixture of HT29 and HCT116 cells were plated on glass slides (Nalge). Wells were incubated with 10 μM of RPM-FITC peptide for 45 minutes at 4° C. or 37° C. After washing with wash buffer, cells were blocked with 1% NGS, 0.1% BSA, 0.1% Triton-X100 in PBS. Following the blocking step, wells were incubated with the polyclonal p53 antibody, D10, (Santa Cruz) for 1 hour at room temperature. The wells were washed and incubated with the secondary antibodies GαFITC Alexa 488 (Molecular Probes) and GαMouse Alexa 647 (Molecular Probes) and the nuclear stain Topro-3 (Molecular Probes). Wells were washed and mounted using Pro-Long Anti-fade (Molecular Probes). Slides were analyzed by confocal microscopy.
# The peptide then was tested to determine whether it was able to differentiate HT29 from HCT116 cells. In order to distinguish HT29 from HCT116 cells in our immunohistochemical assays, staining was carried out in the presence of the transcription factor, p53. Staining for the protein p53 is a way to visually discriminate HT29 from HCT116 cells, since p53 is mutated and accumulates in HT29 cells but is wild type in HCT116 cells and thus, is rapidly degraded. […] To test the ability of the fluorescein conjugated peptide (RPM-FITC) to preferentially bind HT29 cells, HT29 and HCT116 cells were stained with RPM-FITC. […] When a mixture of HT29 and HCT116 cells was incubated with RPM-FITC and concurrently analyzed for the presence of p53, cells with the highest level of p53 protein also bound RPM-FITC (FIG. 5A).
# The ability of a molecule to translocate across the cell membrane is important for drug delivery. HT29 cells were incubated for 1 hour at either 4° C. or 37° C. in the presence of 100 uM RPM-FITC. After incubation, cells were washed, fixed with 2% paraformaldehyde, then incubated with an anti-FITC secondary antibody to amplify the fluorescence signal.
# HCT116 cells = test: as above; assay type: cell-based; settings: 1 hour at 4° C.
# Description: as §1, with “Wells were incubated with 10 μM of RPM-FITC peptide for 45 minutes at 4° C. or 37° C.” left out
# The peptide then was tested to determine whether it was able to differentiate HT29 from HCT116 cells. In order to distinguish HT29 from HCT116 cells in our immunohistochemical assays, staining was carried out in the presence of the transcription factor, p53. Staining for the protein p53 is a way to visually discriminate HT29 from HCT116 cells, since p53 is mutated and accumulates in HT29 cells but is wild type in HCT116 cells and thus, is rapidly degraded. […] When a mixture of HT29 and HCT116 cells was incubated with RPM-FITC and concurrently analyzed for the presence of p53, cells with the highest level of p53 protein also bound RPM-FITC (FIG. 5A).
# human colon tumor = test: Peptide-binding assay on frozen tissue sections; settings: frozen sections, 4° C.
# Description: (§2) A biopsy of sporadic colon adenocarcinoma, liver and lung sarcoma, and grossly uninvolved colon, liver, lung, and stomach were frozen in optimum cutting temperature (OCT) and […] cryostat sections placed on glass slides. Sections were stained with H&E and untreated adjacent sections were incubated with RPM-FITC. After incubating with RPM-FITC in binding buffer for 45 minutes at 4° C., slides were washed and mounted using Pro-Long Anti-Fade (Molecular Probes). Nuclei were visualized by a quick incubation with Topro-3 (Molecular Probes) present in the last wash. Samples were analyzed by confocal microscopy.
# [1] = tested on: grossly uninvolved normal colon; test: Peptide-binding assay on frozen tissue sections; design: species or system human
# Description: as §2
# [2] = tested on: lung and liver cancer, grossly uninvolved lung, liver, and stomach; test: Peptide-binding assay on frozen tissue sections; design: species or system human; settings: cryostat sections
# Description: as §2
# To determine whether RPM-FITC was able to bind cancers originated from tissues other than colon or to other normal tissues, a peptide-binding assay was performed on cryostat sections of lung and liver cancer, and grossly uninvolved lung, liver, and stomach. As a positive control, a section of colon tumor was stained in parallel with the other sections. […] Binding to HT29 Cells is Dependent on the Amino Acids, RPMC-C (SEQ ID NO: 136).
substance,measurement,setting,value
"RPM-FITC: fluorescein conjugated peptide (RPM-FITC) (CPIEDRPMC; cysteine pairing not given here; also: fluorescein (FITC) conjugated, position not given here)",localisation of peptide in HT29 cells,HT29 cells; 4° C.,confined to the cell surface
same,localisation of peptide in HT29 cells,HT29 cells; 37° C.,diffuse staining throughout the cells
same,RPM-FITC staining of HT29 cells,HT29 cells; 1 hour at 4° C.,showed fluorescence
same,RPM-FITC staining of HCT116 cells,HCT116 cells,little or no fluorescence
same,binding/staining of human colon tumor sections,human colon tumor,preferential binding; also recorded: bright staining
same,binding/staining of human colon tumor sections,human colon tumor; listed as FITC-conjugated RPM,showed binding
same,binding to adjacent normal colon tissue,[1],no binding
same,"labeling of lung and liver cancer and uninvolved lung, liver, stomach",[2],no labeling
